In assay [1] the target is T1, ThsSR (ThsS/R; Shal_3128/9) (Shewanella halifaxensis, UniProt B0TQ83).
T1 construct: E. coli codon-optimised ThsS (pKD182, IPTG-inducible) and ThsR (pKD184, aTc-inducible) in E. coli BW28357; PphsA342-sfGFP reporter; membrane histidine kinase with PhnD-like periplasmic sensor domain; with Thiosulfate response regulator ThsR
T1 sequence (B0TQ83 1-594): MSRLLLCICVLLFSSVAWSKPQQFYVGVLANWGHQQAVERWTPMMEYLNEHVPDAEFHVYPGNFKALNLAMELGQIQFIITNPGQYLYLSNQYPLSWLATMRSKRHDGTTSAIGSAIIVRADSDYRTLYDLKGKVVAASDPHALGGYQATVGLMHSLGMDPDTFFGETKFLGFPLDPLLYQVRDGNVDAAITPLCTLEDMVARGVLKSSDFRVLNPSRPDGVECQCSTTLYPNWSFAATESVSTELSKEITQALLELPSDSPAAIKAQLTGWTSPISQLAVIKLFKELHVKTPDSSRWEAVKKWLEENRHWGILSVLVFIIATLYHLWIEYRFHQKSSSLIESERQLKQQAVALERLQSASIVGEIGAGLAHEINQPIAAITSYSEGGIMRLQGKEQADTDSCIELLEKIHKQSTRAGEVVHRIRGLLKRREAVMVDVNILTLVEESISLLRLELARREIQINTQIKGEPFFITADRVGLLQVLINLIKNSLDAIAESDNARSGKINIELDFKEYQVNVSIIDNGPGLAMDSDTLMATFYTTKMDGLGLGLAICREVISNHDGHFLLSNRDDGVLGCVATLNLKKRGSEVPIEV
Put plainly: sfGFP reporter, flow cytometry, repression transfer function. The format is cell-based. To be noted: read-out: half-maximal inhibition. On the technique in general: Flow cytometry measures light scatter and fluorescence of single cells or particles in a stream.

The subject of assay [2] is T2, S. baltica TtrSR (Sbal195_3859/8).
T2 construct: gene ttrS; E. coli codon-optimised TtrS (pKD227, IPTG-inducible) and TtrR (pKD226, aTc-inducible) in E. coli BW28357; PttrB185-269-sfGFP reporter; with Tetrathionate response regulator TtrR
Description: sfGFP reporter, flow cytometry, Hill fit. Particulars: E. coli BW28357, aerobic, M9 + glycerol, 37°C, 10 μM IPTG; PttrB185-269 reporter; activation; read-out: k 1/2. In kind it is cell-based, Shewanella baltica.

The target in assay [3] is T1, ThsSR (ThsS/R; Shal_3128/9). Put plainly: sfGFP reporter, flow cytometry, Hill fit. The format is cell-based. To be noted: read-out: k 1/2.

Consider `O=S(O)O` [sulfite], for which the IC50 in assay [1] was determined as 390 ± 10 µM.
In the case of `O=S(=O)(O)SSS(=O)(=O)O` [tetrathionate], the EC50 in assay [2] came to 50 ± 3 µM. Moreover, the IC50 in assay [1] came to 550 ± 20 µM.
For the compound `O=S(O)(O)=S` [thiosulfate], the EC50 in assay [3] worked out at 280 ± 10 µM.

The values are drawn from paper PMC5408782, “Engineering bacterial thiosulfate and tetrathionate sensors for detecting gut inflammation” (Molecular Systems Biology, 2017).
